Measurements from patent US10676829B2, “Corrosion inhibition composition for pipelines, process of elaboration and synthesis” (INSTITUTO MEXICANO DEL PETROLEO, priority 2013, dated 2020).

Test: Corrosion inhibition efficiency by electrochemical impedance spectroscopy (EIS), three-electrode cell
Conditions: 40° C., 3 hours
Procedure: Evaluation Using Electrochemical Impedance Spectroscopy (EIS)
The evaluation of corrosion inhibiting properties of the individual structures and binary compositions was carried out in a conventional electrochemical cell (E) with a three electrode arrangement as the one shown in FIG. 1. This cell allows maintaining stirring and constant temperature during development of measurement.
The inhibiting formulations to be evaluated are added in the desired concentration in the test solution (D), whereas a stirring of 2000 rpm and a temperature of 40° C. are maintained. […] The system is maintained under stirring and constant temperature for 3 hours.
After 3 hours, the electrochemical impedance spectrum is obtained in a range of 10 kHz and 10 mHz frequency and the resistance related to corrosion and together with that obtained in an identical experiment but only with the test solution was obtained from this spectrum; the corrosion inhibition efficiency was calculated.

[1] = test water SP1, concentration 50 mg/L
[2] = test water SP1, concentration 500 mg/L
[3] = test water SP1, concentration 2500 mg/L

CCCCCCCCCCCCCCN=Cc1c[nH]cn1 [IMC14, N-[1H-imidazole-(4-methylidene)]-tetradecane-1-amine] showed an Inhibition efficiency % [1] of 19.8%, an Inhibition efficiency % [2] of 78.9% and an Inhibition efficiency % [3] of 98.0%.

Work on CCCCCCCCCCCCN=Cc1c[nH]cn1 [IMC12, N-[1H-imidazole-(4-methylidene)]-dodecane-1-amine] yielded an Inhibition efficiency % [1] of 23.1%, an Inhibition efficiency % [2] of 80.9% and an Inhibition efficiency % [3] of 95.4%.

CCCCCCNCn1nnc2ccccc21 [BZC6, N-(1H-benzotriazole-1-methyl)-hexane-1-amine] gave an Inhibition efficiency % [1] of 18.2%, an Inhibition efficiency % [2] of 35.3% and an Inhibition efficiency % [3] of 73.7%.

CCCCn1cc[n+](C)c1.[Br-] [MIMC4, 1-butyl-3-methylimidazolium bromide] gave an Inhibition efficiency % [1] of 15.2%, an Inhibition efficiency % [2] of 61.9% and an Inhibition efficiency % [3] of 76.0%.
